The values that follow come from ChEMBL document CHEMBL3217587, “The discovery of N-1 substituted 2-aminobenzimidazoles as zinc-dependent S. aureus biofilm inhibitors” (Medchemcomm, 2012).

For data set [1], the system named is Staphylococcus aureus. As to the kind of experiment: Toxicity in methicillin-resistant Staphylococcus aureus ATCC 43300 assessed as inhibition of planktonic cell growth at IC50 after 2 to 24 hrs by spectrophotometry. It counts as organism-based.
In the next data set the test system is Pseudomonas aeruginosa. As to the kind of experiment: Antimicrobial activity against Pseudomonas aeruginosa PA14 after 16 hrs by broth microdilution method. It counts as functional. The following applies: PA14, 16 h. On the technique in general: Dilution methods test growth across graded concentrations, often in twofold steps.
Another data set has as its system Acinetobacter baumannii. As to the kind of experiment: Antimicrobial activity against multidrug-resistant Acinetobacter baumannii ATCC BAA-1605 after 16 hrs by broth microdilution method. It counts as functional. The following applies: ATCC BAA-1605, 16 h.
Data set [2] has as its system Staphylococcus aureus. As to the kind of experiment: Antimicrobial activity against methicillin-resistant Staphylococcus aureus ATCC BAA-811 after 16 hrs by broth microdilution method. It counts as functional. The following applies: ATCC BAA-811, 16 h.
In data set [3] the test system is Staphylococcus aureus. As to the kind of experiment: Toxicity in methicillin-resistant Staphylococcus aureus ATCC BAA-44 assessed as inhibition of planktonic cell growth at IC50 after 2 to 24 hrs by spectrophotometry. It counts as organism-based.
The subject of data set [4] is Staphylococcus aureus. In words: Antimicrobial activity against methicillin-resistant Staphylococcus aureus ATCC 700789 after 16 hrs by broth microdilution method. It counts as functional. The settings on record: ATCC 700789, 16 h.
Data set [5] has as its system Staphylococcus aureus. In words: Antimicrobial activity against methicillin-resistant Staphylococcus aureus ATCC BAA-44 assessed as inhibition of biofilm formation after 24 hrs by crystal violet staining-based microscopy. The settings on record: ATCC BAA-44, 24 h. It counts as functional, organism-based.
In data set [6] the test system is Staphylococcus aureus. As to the kind of experiment: Antimicrobial activity against methicillin-resistant Staphylococcus aureus ATCC 33591 after 16 hrs by broth microdilution method. The settings on record: ATCC 33591, 16 h. It counts as functional.
Data set [7] deals with Staphylococcus aureus. In words: Antimicrobial activity against methicillin-resistant Staphylococcus aureus ATCC 43300 assessed as inhibition of biofilm formation after 24 hrs by crystal violet staining-based microscopy. The settings on record: ATCC 43300, 24 h. It counts as functional, organism-based.
Data set [8] deals with Staphylococcus aureus. In words: Antimicrobial activity against methicillin-resistant Staphylococcus aureus ATCC 43300 after 16 hrs by broth microdilution method. It counts as functional. The following applies: ATCC 43300, 16 h.
Data set [9] relates to Staphylococcus aureus. In words: Antimicrobial activity against methicillin-resistant Staphylococcus aureus ATCC BAA-1556 after 16 hrs by broth microdilution method. It counts as functional. The settings on record: ATCC BAA-1556, 16 h.
The subject of data set [10] is Staphylococcus aureus. As to the kind of experiment: Antimicrobial activity against methicillin-susceptible Staphylococcus aureus ATCC 29213 after 16 hrs by broth microdilution method. It counts as functional. The settings on record: ATCC 29213, 16 h.
Data set [11] relates to Staphylococcus aureus. In words: Antibiofilm activity against methicillin-resistant Staphylococcus aureus ATCC 43300 assessed as biofilm dispersal at 20 uM after 24 hrs by crystal violet staining-based microscopy. It counts as functional, organism-based.
The test system of data set [12] is Staphylococcus aureus. As to the kind of experiment: Antimicrobial activity against methicillin-resistant Staphylococcus aureus ATCC BAA-44 after 16 hrs by broth microdilution method. It counts as functional. The settings on record: ATCC BAA-44, 16 h.
The test system of data set [13] is Staphylococcus aureus. In words: Antimicrobial activity against methicillin-resistant Staphylococcus aureus ATCC BAA-1753 after 16 hrs by broth microdilution method. The settings on record: ATCC BAA-1753, 16 h. It counts as functional.
In data set [14] the test system is Staphylococcus aureus. In words: Antimicrobial activity against methicillin-resistant Staphylococcus aureus ATCC BAA-1685 after 16 hrs by broth microdilution method. The settings on record: ATCC BAA-1685, 16 h. It counts as functional.

Calls of active or inactive are those of the source. The rule behind the calls is not given here.

With `CCCCCc1ccc(C(=O)Nc2ccc3c(c2)nc(N)n3CCc2cccc(OC)c2)cc1.Cl`, the Activity entry in the data set on Staphylococcus aureus [1] is on record as “Toxic”; in the data set on Staphylococcus aureus [3], “Non-toxic”. For the same compound, the MIC with Pseudomonas aeruginosa was greater than 64 µg/mL; in the data set with Acinetobacter baumannii, greater than 64 µg/mL; in the data set with Staphylococcus aureus [2], 16 µg/mL; in the data set with Staphylococcus aureus [4], 16 µg/mL; in the data set with Staphylococcus aureus [6], 16 µg/mL; against Staphylococcus aureus [8], 16 µg/mL. For the same compound, the MIC in the data set with Staphylococcus aureus [9] came out at 16 µg/mL; against Staphylococcus aureus [10], 16 µg/mL; with Staphylococcus aureus [12] it was 32 µg/mL; with Staphylococcus aureus [13] it was 16 µg/mL; against Staphylococcus aureus [14], 16 µg/mL. For the same compound, the IC50 in the data set with Staphylococcus aureus [5] came to 9.3 µM; with Staphylococcus aureus [7], 6.1 µM. Also, the outcome with Staphylococcus aureus [11] was inactive.
With `CCCCCc1ccc(C(=O)Nc2ccc3c(c2)nc(N)n3CCCc2ccccc2)cc1.Cl`, the Activity entry with Staphylococcus aureus [1] and with Staphylococcus aureus [3] was “Non-toxic” throughout. In addition, the MIC in the data set with Pseudomonas aeruginosa was greater than 64 µg/mL; against Acinetobacter baumannii, greater than 64 µg/mL; against Staphylococcus aureus [2], 16 µg/mL; with Staphylococcus aureus [4], 32 µg/mL; in the data set with Staphylococcus aureus [6], 16 µg/mL; in the data set on Staphylococcus aureus [8], 16 µg/mL. Besides, the MIC in the data set with Staphylococcus aureus [9] stood at 16 µg/mL; against Staphylococcus aureus [10] it was 16 µg/mL; against Staphylococcus aureus [12] it was 32 µg/mL; in the data set on Staphylococcus aureus [13], 32 µg/mL; against Staphylococcus aureus [14], 32 µg/mL. Further, the values for the concentration for half-maximal inhibition (IC50) in the data set on Staphylococcus aureus [5] and in the data set on Staphylococcus aureus [7] were 5.2 µM and 4.7 µM, respectively. Besides, in the data set with Staphylococcus aureus [11], the outcome was inactive.
Take `CCCCCc1ccc(C(=O)Nc2ccc3c(c2)nc(N)n3CCc2ccc(OC)cc2)cc1.Cl`: the Activity result with Staphylococcus aureus [1] and with Staphylococcus aureus [3] was “Toxic” in each case. Moreover, the MIC is greater than 64 µg/mL against Pseudomonas aeruginosa; greater than 64 µg/mL in the data set with Acinetobacter baumannii; 16 µg/mL against Staphylococcus aureus [2]; 16 µg/mL against Staphylococcus aureus [4]; 16 µg/mL with Staphylococcus aureus [6]; 8 µg/mL with Staphylococcus aureus [8]. Moreover, the MIC was found to be 8 µg/mL against Staphylococcus aureus [9]; 16 µg/mL in the data set with Staphylococcus aureus [10]; 16 µg/mL with Staphylococcus aureus [12]; 16 µg/mL in the data set on Staphylococcus aureus [13]; 8 µg/mL in the data set on Staphylococcus aureus [14]. Also, the IC50 was 10.4 µM with Staphylococcus aureus [5] and 6.2 µM in the data set with Staphylococcus aureus [7]. Further, the result in the data set with Staphylococcus aureus [11] was inactive.
For the compound `CCCCCc1ccc(C(=O)Nc2ccc3c(c2)nc(N)n3CCCC)cc1.Cl`, the Activity entry with Staphylococcus aureus [1] and with Staphylococcus aureus [3] was “Non-toxic” each time. Moreover, the MIC in the data set on Pseudomonas aeruginosa was greater than 64 µg/mL; against Acinetobacter baumannii, greater than 64 µg/mL; against Staphylococcus aureus [2] it was 8 µg/mL; in the data set on Staphylococcus aureus [4], 8 µg/mL; against Staphylococcus aureus [6], 8 µg/mL; against Staphylococcus aureus [8], 8 µg/mL. The MIC against Staphylococcus aureus [9], against Staphylococcus aureus [10], with Staphylococcus aureus [12], with Staphylococcus aureus [13] and in the data set with Staphylococcus aureus [14] was 8 µg/mL in each case. Also, the values for the IC50 in the data set with Staphylococcus aureus [5] and in the data set on Staphylococcus aureus [7] were 5 µM and 4.5 µM, respectively. The outcome in the data set with Staphylococcus aureus [11] was inactive.
As to `CCCCCc1ccc(C(=O)Nc2ccc3c(c2)nc(N)n3C(C)C)cc1.Cl`, the Activity result with Staphylococcus aureus [1] and in the data set on Staphylococcus aureus [3] was “Non-toxic” each time. The MIC in the data set with Pseudomonas aeruginosa is greater than 64 µg/mL; against Acinetobacter baumannii, 32 µg/mL; in the data set with Staphylococcus aureus [2], 16 µg/mL; in the data set on Staphylococcus aureus [4], 16 µg/mL; in the data set with Staphylococcus aureus [6], 16 µg/mL; against Staphylococcus aureus [8] it was 16 µg/mL. Also, the minimum inhibitory concentration (MIC) against Staphylococcus aureus [9] is 8 µg/mL; with Staphylococcus aureus [10], 16 µg/mL; in the data set with Staphylococcus aureus [12], 16 µg/mL; in the data set with Staphylococcus aureus [13], 16 µg/mL; with Staphylococcus aureus [14], 8 µg/mL. Moreover, the 50% inhibitory concentration (IC50) in the data set on Staphylococcus aureus [5] is 9.4 µM; in the data set with Staphylococcus aureus [7] it was 7.9 µM. In the data set on Staphylococcus aureus [11], the outcome was inactive.

In general, MIC refers to the lowest concentration found to suppress growth. Read a low MIC as a more susceptible organism. As a reminder, the IC50 is the point on the concentration scale where inhibition reaches its midpoint.
